A short description of test [1]: MembraneChip lipid only control corral probed with fluorescent ligand. It counts as binding. The settings on record: for difference in BODIPY TMR CGP12177 fluorescence when competitor added: lipid only (negative) corral, 5 mM propranolol or 15 mM scopolamine.
Test [2] concerns the target CXCR4 (CXC chemokine Receptor 4) (Homo sapiens, UniProt P61073). Description: MembraneChip specificity of fluorescent ligand binding against another GPCR. The following applies: CXCR4 chip probed with 15 μM BODIPY 558/568 Pirenzepine.
In test [3] the target is T1, CXCR3 (Homo sapiens, UniProt P49682).
T1 construct: purchased Stratagene (La Jolla, Calif.)
T1 sequence (P49682 1-368): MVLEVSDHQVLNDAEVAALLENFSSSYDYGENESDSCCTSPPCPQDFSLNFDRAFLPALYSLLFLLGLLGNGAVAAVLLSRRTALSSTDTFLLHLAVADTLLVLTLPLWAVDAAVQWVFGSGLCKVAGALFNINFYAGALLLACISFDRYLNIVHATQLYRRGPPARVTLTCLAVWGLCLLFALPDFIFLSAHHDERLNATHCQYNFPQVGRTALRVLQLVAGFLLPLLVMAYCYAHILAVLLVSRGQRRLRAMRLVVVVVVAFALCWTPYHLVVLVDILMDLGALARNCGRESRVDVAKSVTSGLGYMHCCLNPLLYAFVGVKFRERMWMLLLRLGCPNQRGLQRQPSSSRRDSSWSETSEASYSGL
Briefly: Multiplexed MembraneChip GPCR assay. It counts as binding. The settings on record: CXCR3 corral; 5 mM propranolol or 15 mM scopolamine.

The target of test [4] is T2, CXCR1 (Homo sapiens, UniProt P25024).
T2 construct: purchased Stratagene (La Jolla, Calif.)
T2 sequence (P25024 1-350): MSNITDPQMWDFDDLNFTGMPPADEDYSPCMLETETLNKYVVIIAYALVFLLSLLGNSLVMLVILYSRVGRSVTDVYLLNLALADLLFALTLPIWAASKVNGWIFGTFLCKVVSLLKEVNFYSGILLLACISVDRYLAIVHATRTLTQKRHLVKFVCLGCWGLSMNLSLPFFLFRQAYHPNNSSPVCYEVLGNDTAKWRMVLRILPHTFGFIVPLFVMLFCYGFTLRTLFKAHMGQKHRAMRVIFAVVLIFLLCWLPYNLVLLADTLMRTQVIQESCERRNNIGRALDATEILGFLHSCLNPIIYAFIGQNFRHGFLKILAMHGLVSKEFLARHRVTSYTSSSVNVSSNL
Description: Multiplexed MembraneChip GPCR assay. It counts as binding. The settings on record: CXCR1 corral; 5 mM propranolol or 15 mM scopolamine.

Test [5] addresses CXCR4 (Homo sapiens, UniProt P61073). Description: Multiplexed MembraneChip GPCR assay. It counts as binding. The following applies: CXCR4 corral; 5 mM propranolol or 15 mM scopolamine.
Test [6] deals with T3, AR-β1 (Homo sapiens, UniProt P08588).
T3 construct: purchased Packard BioScience (Meriden, CT) 6110106
Briefly: Multiplexed MembraneChip GPCR assay. It counts as binding. The settings on record: 15 mM scopolamine.

Chain of CXCR4 (P61073 whole entry, species assumed): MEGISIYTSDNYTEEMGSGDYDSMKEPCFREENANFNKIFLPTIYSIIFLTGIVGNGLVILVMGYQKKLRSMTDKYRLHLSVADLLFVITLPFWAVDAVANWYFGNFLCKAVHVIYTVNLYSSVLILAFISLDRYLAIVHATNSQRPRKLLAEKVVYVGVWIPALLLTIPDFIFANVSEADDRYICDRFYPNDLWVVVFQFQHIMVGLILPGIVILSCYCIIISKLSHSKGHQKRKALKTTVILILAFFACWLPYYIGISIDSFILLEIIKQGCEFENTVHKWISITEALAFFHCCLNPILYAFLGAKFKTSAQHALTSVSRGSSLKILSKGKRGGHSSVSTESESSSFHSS
Chain of CXCR4 (CXC chemokine Receptor 4) (P61073 whole entry, species assumed): as above
T3 sequence (P08588 whole entry): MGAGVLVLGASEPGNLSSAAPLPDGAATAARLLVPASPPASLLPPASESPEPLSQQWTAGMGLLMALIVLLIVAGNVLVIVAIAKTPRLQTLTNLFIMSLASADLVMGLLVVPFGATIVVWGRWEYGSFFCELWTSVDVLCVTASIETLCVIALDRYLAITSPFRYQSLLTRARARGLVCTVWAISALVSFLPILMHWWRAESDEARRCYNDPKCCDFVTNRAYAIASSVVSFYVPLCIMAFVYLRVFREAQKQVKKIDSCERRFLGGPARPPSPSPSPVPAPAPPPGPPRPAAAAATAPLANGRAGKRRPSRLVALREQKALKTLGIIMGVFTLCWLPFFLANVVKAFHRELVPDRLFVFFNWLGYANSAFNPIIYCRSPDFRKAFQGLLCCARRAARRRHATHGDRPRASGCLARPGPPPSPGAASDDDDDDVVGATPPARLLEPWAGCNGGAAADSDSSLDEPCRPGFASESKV

Consider `O=C(CCc1ccc(/C=C2\C=CC(c3cccs3)=N2)n1B(F)F)NCCCCCCN1CCN(CC(=O)N2c3ccccc3C(=O)Nc3cccnc32)CC1` [BODIPY 558/568 Pirenzepine], for which the “Relative Fluorescence Units (RFU) ± standard deviation, Negative” value in test [1] (lipid only corral probed with 15 μM BODIPY 558/568 Pirenzepine) was 2,637 ± 1,846 RFU. In test [2], the “Relative Fluorescence Units (RFU) ± standard deviation, CXCR4” value is given as 8,788 ± 3,137 RFU.

For `CC(C)NCC(O)COc1cccc2ccccc12` (stereo not shown) [propranolol], the “difference in BODIPY TMR CGP12177 fluorescence when competitor added” value in test [1], in test [3] and in test [4] was “only negligible differences” throughout.

Consider `CN1[C@@H]2C[C@@H](OC(=O)[C@H](CO)c3ccccc3)C[C@H]1[C@@H]1O[C@@H]12` [scopolamine], for which the “difference in BODIPY TMR CGP12177 fluorescence when competitor added” value in test [1], in test [5], in test [3] and in test [4] was “only negligible differences” each time. In test [6], the “change in fluorescence of BODIPY TMR CGP12177 at AR-β1” value is given as “Little decrease in fluorescence”.

The values are drawn from US6699719B2, “Biosensor arrays and methods” (Proteomic Systems, Inc., priority 1996, dated 2004).
